Experimental data: PubChem BioAssay (NCI)
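Compound exposure: 48 hours, 5 concentrations, 96-well plates. At the GI50, growth is halved. Definition used: TGI = concentration required for complete inhibition of growth.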

Columns and labels:
Test in all cases: NCI tumour cell line growth inhibition, 48 h
786-0 renal = system: 786-0 renal
A498 renal = system: A498 renal
A549 NSCLC = system: A549 NSCLC
ACHN renal = system: ACHN renal
BT-549 breast = system: BT-549 breast
CAKI-1 renal = system: CAKI-1 renal
CCRF-CEM leukemia = system: CCRF-CEM leukemia
COLO 205 colon = system: COLO 205 colon
DU-145 prostate = system: DU-145 prostate
EKVX NSCLC = system: EKVX NSCLC
HCC-2998 colon = system: HCC-2998 colon
HCT-116 colon = system: HCT-116 colon
HCT-15 colon = system: HCT-15 colon
HL-60(TB) leukemia = system: HL-60(TB) leukemia
HOP-62 NSCLC = system: HOP-62 NSCLC
HOP-92 NSCLC = system: HOP-92 NSCLC
HS 578T breast = system: HS 578T breast
HT29 colon = system: HT29 colon
IGROV1 ovarian = system: IGROV1 ovarian
K-562 leukemia = system: K-562 leukemia
KM12 colon = system: KM12 colon
LOX IMVI melanoma = system: LOX IMVI melanoma
M14 melanoma = system: M14 melanoma
MALME-3M melanoma = system: MALME-3M melanoma
MCF7 breast = system: MCF7 breast
MDA-MB-231 breast = system: MDA-MB-231 breast
MDA-MB-435 = system: MDA-MB-435
MDA-MB-468 breast = system: MDA-MB-468 breast
MOLT-4 leukemia = system: MOLT-4 leukemia
NCI-H226 lung = system: NCI-H226 lung
NCI-H23 lung = system: NCI-H23 lung
NCI-H460 lung = system: NCI-H460 lung
NCI-H522 lung = system: NCI-H522 lung
NCI/ADR-RES ovarian = system: NCI/ADR-RES ovarian
OVCAR-3 ovarian = system: OVCAR-3 ovarian
OVCAR-4 ovarian = system: OVCAR-4 ovarian
OVCAR-5 ovarian = system: OVCAR-5 ovarian
OVCAR-8 ovarian = system: OVCAR-8 ovarian
PC-3 prostate = system: PC-3 prostate
RPMI-8226 leukemia = system: RPMI-8226 leukemia
RXF 393 renal = system: RXF 393 renal
SF-268 CNS = system: SF-268 CNS
SF-295 CNS = system: SF-295 CNS
SF-539 CNS = system: SF-539 CNS
SK-MEL-2 melanoma = system: SK-MEL-2 melanoma
SK-MEL-28 melanoma = system: SK-MEL-28 melanoma
SK-MEL-5 melanoma = system: SK-MEL-5 melanoma
SK-OV-3 ovarian = system: SK-OV-3 ovarian
SN12C renal = system: SN12C renal
SNB-19 CNS = system: SNB-19 CNS
SNB-75 CNS = system: SNB-75 CNS
SR leukemia = system: SR leukemia
SW-620 colon = system: SW-620 colon
T-47D breast = system: T-47D breast
TK-10 renal = system: TK-10 renal
U251 CNS = system: U251 CNS
UACC-257 melanoma = system: UACC-257 melanoma
UACC-62 melanoma = system: UACC-62 melanoma
UO-31 renal = system: UO-31 renal

CCN1C(=O)N(CC)C2NNC(Sc3c(C(=O)O)c4ccccc4n(C4CCCC4)c3=O)=NC21 (stereo not drawn)
GI50 (786-0 renal): 4.36 µM | TGI (786-0 renal): 19.4 µM | GI50 (A498 renal): 14.8 µM | TGI (A498 renal): 42.8 µM | GI50 (A549 NSCLC): 4.04 µM | TGI (A549 NSCLC): 17.8 µM | GI50 (ACHN renal): 4.36 µM | TGI (ACHN renal): 16.3 µM | GI50 (BT-549 breast): 9.6 µM | TGI (BT-549 breast): 24.4 µM | GI50 (CAKI-1 renal): 3.97 µM | TGI (CAKI-1 renal): 16.5 µM | GI50 (CCRF-CEM leukemia): 3.45 µM | TGI (CCRF-CEM leukemia): 38.3 µM | GI50 (COLO 205 colon): 2.04 µM | TGI (COLO 205 colon): 4.16 µM | GI50 (DU-145 prostate): 3.91 µM | TGI (DU-145 prostate): 18.3 µM | GI50 (EKVX NSCLC): 4.69 µM | TGI (EKVX NSCLC): 27.4 µM | GI50 (HCC-2998 colon): 2.84 µM | TGI (HCC-2998 colon): 9.8 µM | GI50 (HCT-116 colon): 3.09 µM | TGI (HCT-116 colon): 11.2 µM | GI50 (HCT-15 colon): 2.85 µM | TGI (HCT-15 colon): 11.2 µM | GI50 (HL-60(TB) leukemia): 2.35 µM | TGI (HL-60(TB) leukemia): 6.86 µM | GI50 (HOP-62 NSCLC): 5.75 µM | TGI (HOP-62 NSCLC): 37.2 µM | GI50 (HOP-92 NSCLC): 10.3 µM | TGI (HOP-92 NSCLC): 35 µM | GI50 (HS 578T breast): 2.21 µM | TGI (HS 578T breast): 8.88 µM | GI50 (HT29 colon): 3.13 µM | TGI (HT29 colon): 10.5 µM | GI50 (IGROV1 ovarian): 4.41 µM | TGI (IGROV1 ovarian): 29.4 µM | GI50 (K-562 leukemia): 3.13 µM | TGI (K-562 leukemia): > 100 µM | GI50 (KM12 colon): 3.3 µM | TGI (KM12 colon): 16.9 µM | GI50 (LOX IMVI melanoma): 3.87 µM | TGI (LOX IMVI melanoma): 16.2 µM | GI50 (M14 melanoma): 3.28 µM | TGI (M14 melanoma): 13.3 µM | GI50 (MALME-3M melanoma): 7.36 µM | TGI (MALME-3M melanoma): 25.6 µM | GI50 (MCF7 breast): 2.07 µM | TGI (MCF7 breast): 13.3 µM | GI50 (MDA-MB-231 breast): 3.03 µM | TGI (MDA-MB-231 breast): 11.5 µM | GI50 (MDA-MB-435): 1.47 µM | TGI (MDA-MB-435): 3.85 µM | GI50 (MDA-MB-468 breast): 2.02 µM | TGI (MDA-MB-468 breast): 6.05 µM | GI50 (MOLT-4 leukemia): 3.88 µM | TGI (MOLT-4 leukemia): 50.3 µM | GI50 (NCI-H226 lung): 4.34 µM | TGI (NCI-H226 lung): 17.7 µM | GI50 (NCI-H23 lung): 3.44 µM | TGI (NCI-H23 lung): 15.4 µM | GI50 (NCI-H460 lung): 2.6 µM | TGI (NCI-H460 lung): 10.7 µM | GI50 (NCI-H522 lung): 1.54 µM | TGI (NCI-H522 lung): 3.74 µM | GI50 (NCI/ADR-RES ovarian): 1.92 µM | TGI (NCI/ADR-RES ovarian): 4.42 µM | GI50 (OVCAR-3 ovarian): 3.21 µM | TGI (OVCAR-3 ovarian): 12.8 µM | GI50 (OVCAR-4 ovarian): 6.15 µM | TGI (OVCAR-4 ovarian): 45 µM | GI50 (OVCAR-5 ovarian): 4.09 µM | TGI (OVCAR-5 ovarian): 22.1 µM | GI50 (OVCAR-8 ovarian): 3.28 µM | TGI (OVCAR-8 ovarian): 12.7 µM | GI50 (PC-3 prostate): 4.06 µM | TGI (PC-3 prostate): 33.6 µM | GI50 (RPMI-8226 leukemia): 4.17 µM | TGI (RPMI-8226 leukemia): 25.9 µM | GI50 (RXF 393 renal): 2.85 µM | TGI (RXF 393 renal): 11.9 µM | GI50 (SF-268 CNS): 4.47 µM | TGI (SF-268 CNS): 45.4 µM | GI50 (SF-295 CNS): 2.41 µM | TGI (SF-295 CNS): 7.88 µM | GI50 (SF-539 CNS): 2.14 µM | TGI (SF-539 CNS): 5.51 µM | GI50 (SK-MEL-2 melanoma): 4.15 µM | TGI (SK-MEL-2 melanoma): 19.4 µM | GI50 (SK-MEL-28 melanoma): 6.95 µM | TGI (SK-MEL-28 melanoma): 25.7 µM | GI50 (SK-MEL-5 melanoma): 3.49 µM | TGI (SK-MEL-5 melanoma): 13.6 µM | GI50 (SK-OV-3 ovarian): 3.35 µM | TGI (SK-OV-3 ovarian): 20.8 µM | GI50 (SN12C renal): 3.41 µM | TGI (SN12C renal): 16.1 µM | GI50 (SNB-19 CNS): 4.59 µM | TGI (SNB-19 CNS): 57.3 µM | GI50 (SNB-75 CNS): 1.51 µM | TGI (SNB-75 CNS): 11.8 µM | GI50 (SR leukemia): 3.4 µM | TGI (SR leukemia): 35.7 µM | GI50 (SW-620 colon): 3.3 µM | TGI (SW-620 colon): 17.1 µM | GI50 (T-47D breast): 7.2 µM | TGI (T-47D breast): 72.7 µM | GI50 (TK-10 renal): 10.3 µM | TGI (TK-10 renal): 31.3 µM | GI50 (U251 CNS): 3.66 µM | TGI (U251 CNS): 15.3 µM | GI50 (UACC-257 melanoma): 7.65 µM | TGI (UACC-257 melanoma): 28.2 µM | GI50 (UACC-62 melanoma): 3.05 µM | TGI (UACC-62 melanoma): 16.3 µM | GI50 (UO-31 renal): 4.38 µM | TGI (UO-31 renal): 22.9 µM
